Consider four substances from publication PMC7711741 (Journal of medicinal chemistry, 2015).

Test [1] has as its target murine uPA (Mus musculus, UniProt P06869). In words: Ki determination, chromogenic substrate S-2444. To be noted: for fold increase in Ki for muPA: versus peptide 2. It counts as biochemical.
Test [2] concerns huPA-H99Y. In words: Ki determination, chromogenic substrate S-2444. It counts as biochemical, human. To be noted: versus peptide 2.
Test [3] concerns the target human PK (Homo sapiens, UniProt P03952). In words: Ki determination, chromogenic substrate S-2302. It counts as biochemical. To be noted: versus mupain-1–16.

Sequence of murine uPA (P06869 21-433): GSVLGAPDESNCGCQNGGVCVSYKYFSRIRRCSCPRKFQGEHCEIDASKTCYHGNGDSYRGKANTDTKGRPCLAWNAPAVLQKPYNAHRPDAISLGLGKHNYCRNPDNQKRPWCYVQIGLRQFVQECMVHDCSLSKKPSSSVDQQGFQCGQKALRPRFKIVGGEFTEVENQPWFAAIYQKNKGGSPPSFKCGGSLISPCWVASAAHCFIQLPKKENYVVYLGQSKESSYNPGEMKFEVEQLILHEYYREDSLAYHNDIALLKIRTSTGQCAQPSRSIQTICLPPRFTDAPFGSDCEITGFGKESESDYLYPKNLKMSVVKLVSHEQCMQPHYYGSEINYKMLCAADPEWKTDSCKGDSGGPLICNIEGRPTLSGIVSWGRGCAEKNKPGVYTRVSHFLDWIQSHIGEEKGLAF
Sequence of human PK (P03952 20-638): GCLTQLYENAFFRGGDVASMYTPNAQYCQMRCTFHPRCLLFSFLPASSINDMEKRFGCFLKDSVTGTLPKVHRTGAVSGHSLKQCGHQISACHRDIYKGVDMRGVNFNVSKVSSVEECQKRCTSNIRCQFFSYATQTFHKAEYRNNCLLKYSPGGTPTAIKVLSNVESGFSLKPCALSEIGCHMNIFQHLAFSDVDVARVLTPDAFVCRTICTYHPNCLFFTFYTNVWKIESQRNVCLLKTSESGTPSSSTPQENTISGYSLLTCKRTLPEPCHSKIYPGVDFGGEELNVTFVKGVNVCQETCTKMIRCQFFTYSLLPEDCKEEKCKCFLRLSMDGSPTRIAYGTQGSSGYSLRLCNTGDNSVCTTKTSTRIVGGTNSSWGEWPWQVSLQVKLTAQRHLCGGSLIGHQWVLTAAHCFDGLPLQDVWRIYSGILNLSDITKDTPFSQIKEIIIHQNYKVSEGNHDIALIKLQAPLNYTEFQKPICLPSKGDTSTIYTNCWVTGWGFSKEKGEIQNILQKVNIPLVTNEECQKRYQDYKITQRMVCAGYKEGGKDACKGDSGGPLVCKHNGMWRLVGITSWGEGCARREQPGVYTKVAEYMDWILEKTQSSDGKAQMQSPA

Take “CPAKS[L-3-(N-amidino-4-piperidyl)alanine]AL[KAc]C [peptide 4]”: in test [1], the “fold increase in Ki for muPA” value came to 100 fold. Besides, the “fold increase in Ki for huPA-H99Y” value in test [2] was 100 fold. For the substance “CPARS[L-3-(N-amidino-4-piperidyl)alanine]AL[KAc]C [peptide 3]”, the “fold increase in Ki for muPA” value in test [1] was determined as 100 fold. In addition, the “fold increase in Ki for huPA-H99Y” value in test [2] is reported as 100 fold. Consider “CPAYS[L-3-(N-amidino-4-piperidyl)alanine]-ALDC [peptide 1]”, for which the “fold lower Ki for inhibition of hPK” value in test [3] came to 10 fold.

For “CPAYS[L-3-(N-amidino-4-piperidyl)alanine]AL[KAc]C [peptide 2]”, in test [1] (versus peptide 1), the “fold weakened affinity to muPA” value was “about 10 fold”.
